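Step 1: Grow cells in 96-well plates. Step 2: Expose to compound for 48 hours at 5 concentrations. Step 3: Interpolate endpoints linearly; if unreached, use highest concentration. At the GI50, growth is halved. At the TGI there is no net growth.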
Experiments:
Assay in all cases: growth of human tumour cells (NCI), 48 h
SK-MEL-2 melanoma = system: SK-MEL-2 melanoma
HCC-2998 colon = system: HCC-2998 colon
MCF7 breast = system: MCF7 breast
SK-OV-3 ovarian = system: SK-OV-3 ovarian
SNB-75 CNS = system: SNB-75 CNS
RXF 393 renal = system: RXF 393 renal
HOP-92 NSCLC = system: HOP-92 NSCLC
MDA-MB-435 = system: MDA-MB-435
BT-549 breast = system: BT-549 breast
786-0 renal = system: 786-0 renal
SN12C renal = system: SN12C renal
HCT-15 colon = system: HCT-15 colon
HL-60(TB) leukemia = system: HL-60(TB) leukemia
COLO 205 colon = system: COLO 205 colon
T-47D breast = system: T-47D breast
MDA-MB-231 breast = system: MDA-MB-231 breast
SNB-19 CNS = system: SNB-19 CNS
CAKI-1 renal = system: CAKI-1 renal
DU-145 prostate = system: DU-145 prostate
SW-620 colon = system: SW-620 colon
NCI/ADR-RES ovarian = system: NCI/ADR-RES ovarian
UO-31 renal = system: UO-31 renal
IGROV1 ovarian = system: IGROV1 ovarian
CCRF-CEM leukemia = system: CCRF-CEM leukemia
OVCAR-5 ovarian = system: OVCAR-5 ovarian
UACC-62 melanoma = system: UACC-62 melanoma
HCT-116 colon = system: HCT-116 colon
OVCAR-3 ovarian = system: OVCAR-3 ovarian
HOP-62 NSCLC = system: HOP-62 NSCLC
LOX IMVI melanoma = system: LOX IMVI melanoma
SF-295 CNS = system: SF-295 CNS
NCI-H226 lung = system: NCI-H226 lung
UACC-257 melanoma = system: UACC-257 melanoma
NCI-H522 lung = system: NCI-H522 lung
K-562 leukemia = system: K-562 leukemia
SF-539 CNS = system: SF-539 CNS
PC-3 prostate = system: PC-3 prostate
NCI-H23 lung = system: NCI-H23 lung
M14 melanoma = system: M14 melanoma
EKVX NSCLC = system: EKVX NSCLC
RPMI-8226 leukemia = system: RPMI-8226 leukemia
KM12 colon = system: KM12 colon
NCI-H460 lung = system: NCI-H460 lung
OVCAR-8 ovarian = system: OVCAR-8 ovarian
MALME-3M melanoma = system: MALME-3M melanoma
TK-10 renal = system: TK-10 renal
SR leukemia = system: SR leukemia
SK-MEL-5 melanoma = system: SK-MEL-5 melanoma
SF-268 CNS = system: SF-268 CNS
A549 NSCLC = system: A549 NSCLC
OVCAR-4 ovarian = system: OVCAR-4 ovarian
A498 renal = system: A498 renal
HS 578T breast = system: HS 578T breast
ACHN renal = system: ACHN renal
MOLT-4 leukemia = system: MOLT-4 leukemia
SK-MEL-28 melanoma = system: SK-MEL-28 melanoma

Question: Which results are given for `Cc1nn(CNc2ccccc2C(F)(F)F)c(=S)n1/N=C/c1cccc2cccnc12`?
Answer: GI50 (SK-MEL-2 melanoma): > 100 µM; TGI (SK-MEL-2 melanoma): > 100 µM; GI50 (HCC-2998 colon): > 100 µM; TGI (HCC-2998 colon): > 100 µM; GI50 (MCF7 breast): 54.9 µM; TGI (MCF7 breast): > 100 µM; GI50 (SK-OV-3 ovarian): > 100 µM; TGI (SK-OV-3 ovarian): > 100 µM; GI50 (SNB-75 CNS): 27.4 µM; TGI (SNB-75 CNS): > 100 µM; GI50 (RXF 393 renal): > 100 µM; TGI (RXF 393 renal): > 100 µM; GI50 (HOP-92 NSCLC): 74.7 µM; TGI (HOP-92 NSCLC): > 100 µM; GI50 (MDA-MB-435): 22.7 µM; TGI (MDA-MB-435): 55 µM; GI50 (BT-549 breast): > 100 µM; TGI (BT-549 breast): > 100 µM; GI50 (786-0 renal): > 100 µM; TGI (786-0 renal): > 100 µM; GI50 (SN12C renal): 19.9 µM; TGI (SN12C renal): 72.7 µM; GI50 (HCT-15 colon): 24.3 µM; TGI (HCT-15 colon): > 100 µM; GI50 (HL-60(TB) leukemia): 40.6 µM; TGI (HL-60(TB) leukemia): > 100 µM; GI50 (COLO 205 colon): > 100 µM; TGI (COLO 205 colon): > 100 µM; GI50 (T-47D breast): > 100 µM; TGI (T-47D breast): > 100 µM; GI50 (MDA-MB-231 breast): 23.4 µM; TGI (MDA-MB-231 breast): 91.7 µM; GI50 (SNB-19 CNS): > 100 µM; TGI (SNB-19 CNS): > 100 µM; GI50 (CAKI-1 renal): > 100 µM; TGI (CAKI-1 renal): > 100 µM; GI50 (DU-145 prostate): > 100 µM; TGI (DU-145 prostate): > 100 µM; GI50 (SW-620 colon): 65.8 µM; TGI (SW-620 colon): > 100 µM; GI50 (NCI/ADR-RES ovarian): 35.3 µM; TGI (NCI/ADR-RES ovarian): > 100 µM; GI50 (UO-31 renal): > 100 µM; TGI (UO-31 renal): > 100 µM; GI50 (IGROV1 ovarian): 52.3 µM; TGI (IGROV1 ovarian): > 100 µM; GI50 (CCRF-CEM leukemia): 18.9 µM; TGI (CCRF-CEM leukemia): > 100 µM; GI50 (OVCAR-5 ovarian): > 100 µM; TGI (OVCAR-5 ovarian): > 100 µM; GI50 (UACC-62 melanoma): 33.8 µM; TGI (UACC-62 melanoma): > 100 µM; GI50 (HCT-116 colon): 44.6 µM; TGI (HCT-116 colon): > 100 µM; GI50 (OVCAR-3 ovarian): > 100 µM; TGI (OVCAR-3 ovarian): > 100 µM; GI50 (HOP-62 NSCLC): > 100 µM; TGI (HOP-62 NSCLC): > 100 µM; GI50 (LOX IMVI melanoma): 34.7 µM; TGI (LOX IMVI melanoma): > 100 µM; GI50 (SF-295 CNS): > 100 µM; TGI (SF-295 CNS): > 100 µM; GI50 (NCI-H226 lung): 56.2 µM; TGI (NCI-H226 lung): > 100 µM; GI50 (UACC-257 melanoma): > 100 µM; TGI (UACC-257 melanoma): > 100 µM; GI50 (NCI-H522 lung): > 100 µM; TGI (NCI-H522 lung): > 100 µM; GI50 (K-562 leukemia): 35.8 µM; TGI (K-562 leukemia): > 100 µM; GI50 (SF-539 CNS): > 100 µM; TGI (SF-539 CNS): > 100 µM; GI50 (PC-3 prostate): 79.1 µM; TGI (PC-3 prostate): > 100 µM; GI50 (NCI-H23 lung): > 100 µM; TGI (NCI-H23 lung): > 100 µM; GI50 (M14 melanoma): 57.9 µM; TGI (M14 melanoma): > 100 µM; GI50 (EKVX NSCLC): > 100 µM; TGI (EKVX NSCLC): > 100 µM; GI50 (RPMI-8226 leukemia): 28.8 µM; TGI (RPMI-8226 leukemia): > 100 µM; GI50 (KM12 colon): 43.7 µM; TGI (KM12 colon): > 100 µM; GI50 (NCI-H460 lung): > 100 µM; TGI (NCI-H460 lung): > 100 µM; GI50 (OVCAR-8 ovarian): > 100 µM; TGI (OVCAR-8 ovarian): > 100 µM; GI50 (MALME-3M melanoma): > 100 µM; TGI (MALME-3M melanoma): > 100 µM; GI50 (TK-10 renal): > 100 µM; TGI (TK-10 renal): > 100 µM; GI50 (SR leukemia): 20.2 µM; TGI (SR leukemia): 67.6 µM; GI50 (SK-MEL-5 melanoma): > 100 µM; TGI (SK-MEL-5 melanoma): > 100 µM; GI50 (SF-268 CNS): 32.5 µM; TGI (SF-268 CNS): > 100 µM; GI50 (A549 NSCLC): > 100 µM; TGI (A549 NSCLC): > 100 µM; GI50 (OVCAR-4 ovarian): 44.3 µM; TGI (OVCAR-4 ovarian): > 100 µM; GI50 (A498 renal): > 100 µM; TGI (A498 renal): > 100 µM; GI50 (HS 578T breast): > 100 µM; TGI (HS 578T breast): > 100 µM; GI50 (ACHN renal): 95.3 µM; TGI (ACHN renal): > 100 µM; GI50 (MOLT-4 leukemia): 41.6 µM; TGI (MOLT-4 leukemia): > 100 µM; GI50 (SK-MEL-28 melanoma): > 100 µM; TGI (SK-MEL-28 melanoma): > 100 µM
